In patent US9404086B2, “Method for cell differentiation” (GE HEALTHCARE UK LIMITED, priority 2014, dated 2016):

How the values were obtained:
Assay type in all cases: cell-based, human
hESC [1] = experiment: qRT-PCR analysis of differentiation markers at day 4 of DE differentiation
Method: Definitive endoderm formation: hESC were passaged onto the appropriate culture flasks or plates at 0.6×10^5 cells/cm^2 and cultured for 2 days. To initiate definitive endoderm differentiation hESC were washed once with PBS and cultured in RMPI 1640 medium (Life Technologies) supplemented with 100 ng/ml of Activin A (R&D Systems) and 0.25 to 2% of DMSO (Sigma). FBS (0.2%) was added after first 24 hours and cells were cultured for four days with media changed daily. Isolation of total cellular RNA was performed using an illustra RNAspin Mini RNA Isolation Kit (GE Healthcare) and the concentration of RNA in each sample measured on a NanoDrop 1000 spectrophotometer. 1 μg of extracted total RNA was reverse transcribed using High Capacity cDNA Reverse Transcription Kit (Applied Biosystems). TaqMan quantitative PCR was performed using unlabelled PCR primers and FAM-based probes (Applied Biosystems by Life Technologies) in conjunction with TaqMan Universal PCR Master Mix, No AmpErase UNG (Applied Biosystems). Concentrated TaqMan PCR Master Mix (2×) was combined with water and cDNA. The final concentration of Master Mix was achieved by addition of appropriate concentrations of primers/FAM probes diluted in water. Reactions were carried out on a 7900HT Fast Real-Time PCR System (Applied Biosystems). qRT-PCR cycling conditions were: 95° C. for 10 min, and subsequently 45 cycles of 95° C. for 10 sec and 60° C. for 1 min. Each sample was run in triplicate with GAPDH as a reference gene. Analysis of results was performed in SDS Software for the 7900HT Fast Real-Time PCR System. Relative quantification was calculated against GAPDH and B-Actin housekeeping genes and standard derivations report n=3 replicates from each sample.

hESC [2] = experiment: Immunofluorescence analysis of differentiation markers at day 4 of DE differentiation
Method: Definitive endoderm formation: hESC were passaged onto the appropriate culture flasks or plates at 0.6×10^5 cells/cm^2 and cultured for 2 days. To initiate definitive endoderm differentiation hESC were washed once with PBS and cultured in RMPI 1640 medium (Life Technologies) supplemented with 100 ng/ml of Activin A (R&D Systems) and 0.25 to 2% of DMSO (Sigma). FBS (0.2%) was added after first 24 hours and cells were cultured for four days with media changed daily. For detection of stage-specific markers, cells were grown and differentiated in 96 well plates (uClear black plate with clear flat bottom, Greiner). Cells were rinsed twice with PBS and fixed in 4% paraformaldehyde (USB) for 15 min at room temperature and then washed twice with PBS and blocked for 30 min at RT in 1% BSA (Life Technologies) and 0.1 mg/ml human IgG (Sigma) in perm/wash buffer (BD). Cells were subsequently stained for 2 hours at RT or overnight at 4° C. with primary rabbit anti-OCT4 (Cell Signaling), mouse and anti-SOX17 (Abcam) antibodies diluted in perm/wash buffer. Cells were subsequently washed several times with perm/wash buffer and incubated at 4° C. in the dark with goat anti-mouse-FITC and chicken anti-rabbit-Cy5 (Molecular probes) diluted 1:400 in perm/wash buffer. […]

hESC [3] = experiment: Flow cytometry analysis of differentiation markers at day 4 of DE differentiation; details: for differentiation to DE: supplementation of Activin A, compared with Activin A and DMSO
Method: Definitive endoderm formation: hESC were passaged onto the appropriate culture flasks or plates at 0.6×10^5 cells/cm^2 and cultured for 2 days. To initiate definitive endoderm differentiation hESC were washed once with PBS and cultured in RMPI 1640 medium (Life Technologies) supplemented with 100 ng/ml of Activin A (R&D Systems) and 0.25 to 2% of DMSO (Sigma). FBS (0.2%) was added after first 24 hours and cells were cultured for four days with media changed daily.
Cells cultured in 6 well plates were washed twice in PBS and treated with 0.25% trypsin-EDTA (Life Technologies) to obtain single cell suspensions. Trypsin was inactivated after 5 min of incubation by adding medium containing 10% FBS. Cells were counted, centrifuged at 300 g for 5 min, washed twice with PBS and subsequently fixed in 2% paraformaldehyde (USB). Following 15 min incubation at room temperature cells were washed in PBS and perm/wash buffer (PWB) (BD) and subsequently resuspended at 4×10^6 cells/ml in perm/wash buffer supplemented with 0.1 mg/ml human IgG (Sigma) and 10% serum from the species of secondary antibody (Life Technologies). Cells were incubated for 30 min at 4° C. and then 50 μl aliquots (2×10^5 cells) were transferred to individual 5 ml polystyrene round-bottom FACS assay tubes. For double staining of cells with OCT4 and SOX17, cells were stained in perm/wash buffer first with mouse anti-OCT4 (Cell Signalling) and incubated for 1 h at room temperature, following by two washes with PBS and incubation in perm/wash buffer with goat anti-mouse-FITC (Molecular Probes) and goat anti-SOX17-APC (R&D Systems). Following 1 h incubation at 4° C., samples were washed twice and resuspended in 0.2% FBS in PBS in a final volume of […]. Separate staining for OCT4 and SOX17 was performed analogously. Cells were analysed on a BD FACSCalibur flow cytometer and data analysed using CellQuest software.

hESC [4] = experiment: Differentiation of hESC-derived DE towards hepatic like cells (AFP day 12, ALB day 28); details: day 28 (hepatic like cells), with increasing concentrations of DMSO during DE stage
Method: Definitive endoderm formation: hESC were passaged onto the appropriate culture flasks or plates at 0.6×10^5 cells/cm^2 and cultured for 2 days. To initiate definitive endoderm differentiation hESC were washed once with PBS and cultured in RMPI 1640 medium (Life Technologies) supplemented with 100 ng/ml of Activin A (R&D Systems) and 0.25 to 2% of DMSO (Sigma). FBS (0.2%) was added after first 24 hours and cells were cultured for four days with media changed daily. Hepatic specification: hESC-derived definitive endoderm cells were washed once with PBS and cultured in KO-DMEM medium and 2% KOSR supplemented with 1 mM L-glutamine, NEAA (all from Life Technologies), B-Mercaptoethanol (Sigma), 30 ng/ml BMP2, 10 ng/ml FGF4, 0.5% DMSO for 5 days with BMP4. […] Isolation of total cellular RNA was performed using an illustra RNAspin Mini RNA Isolation Kit (GE Healthcare) and the concentration of RNA in each sample measured on a NanoDrop 1000 spectrophotometer. […] TaqMan quantitative PCR was performed using unlabelled PCR primers and FAM-based probes (Applied Biosystems by Life Technologies) in conjunction with TaqMan Universal PCR Master Mix, No AmpErase UNG (Applied Biosystems). […] Relative quantification was calculated against GAPDH and B-Actin housekeeping genes and standard derivations report n=3 replicates from each sample.

[5] = increasing concentrations of DMSO with Activin A, day 4
[6] = 0.5% and 1% DMSO added to Activin A containing medium, day 4, relative to control cells treated with Activin A alone

In the case of `C[S+](C)[O-]` [DMSO, dimethyl sulfoxide], the “expression of pluripotency genes” value (hESC [1]; 0.5% to 0.6% DMSO added to Activin A-based medium during definitive endoderm derivation) is reported as “rapid down regulation”, the “DE differentiation compared with established prior art method (Hay et al)” value (hESC [1]; DMSO method day 4 (KCGE D4) versus Hay D5) is reported as “significant improvement” and the CXCR4 expression (hESC [1]; [5]) is reported as “up regulation”. The GATA4 expression (hESC [1]; [5]) was “up regulation”, the OCT4 expression (hESC [1]; [5]) was “significant dose dependent decrease” and the SOX17 expression (hESC [1]; [5]) was “up regulation”. The OCT4 expression (hESC [2]; increasing concentrations of DMSO from 0% to 2% with Activin A) was “down regulation”, the “DMSO concentration at which SOX 17 staining was maximum” value (hESC [2]; with Activin A) was 0.6% and the OCT4 expressing cells (hESC [3]; [6]) was “decrease”. For the same molecule, the SOX17 expressing cells (hESC [3]; [6]) was “increase”, the OCT4 expression (hESC [3]; increasing concentrations of DMSO with Activin A, day 4, flow cytometry confirmation) was “down regulation” and the ALB expression (hESC [4]) was “increased”.

For “FGF2: growth factor reported to aid in DE differentiation, used in conjunction with Activin A”, the “differentiation to DE” value (hESC [3]) was “inferior”.

B1: Wnt3a: growth factor reported to aid in DE differentiation, used in conjunction with Activin A (protein, UniProt P56704 19-352, looked up)
Protein Wnt-3a: SYPIWWSLAVGPQYSSLGSQPILCASIPGLVPKQLRFCRNYVEIMPSVAEGIKIGIQECQHQFRGRRWNCTTVHDSLAIFGPVLDKATRESAFVHAIASAGVAFAVTRSCAEGTAAICGCSSRHQGSPGKGWKWGGCSEDIEFGGMVSREFADARENRPDARSAMNRHNNEAGRQAIASHMHLKCKCHGLSGSCEVKTCWWSQPDFRAIGDFLKDKYDSASEMVVEKHRESRGWVETLRPRYTYFKVPTERDLVYYEASPNFCEPNPETGSFGTRDRTCNVSSHGIDGCDLLCCGRGHNARAERRREKCRCVFHWCCYVSCQECTRVYDVHTCK
B1 was tested, and the “differentiation to DE” value (hESC [3]) was “inferior”.
